In US20080194585A1, “Fungicidal Pyrazine Derivatives” (priority 2005, published 2008):
Marks after values point to notes of the source that are not given here.

Experiments:
Plasmopara viticola = assay: Test D: grape downy mildew, spray after inoculation of grape seedlings; type: in vivo; settings: 40 ppm (*)
From the text: Upon removal, disease ratings were made. […] A dash (-) indicates no test results.

Phytophthora infestans = assay: whole plant or invertebrate; type: in vivo; settings: 40 ppm (*)
Septoria tritici = assay: Test J: wheat leaf blotch, preventive spray on wheat seedlings; type: in vivo; settings: 40 ppm (*)
From the text: A dash (-) indicates no test results.

fusarium graminearium = assay: Test I: wheat head scab, preventive spray on wheat seedlings; settings: 40 ppm (*)
Method: (the causal agent of wheat head scab) and incubated in a saturated atmosphere at 20° C. for 72 h, and then moved to a growth chamber at 22° C. for 5 days, after which disease ratings were made.

[1] = tested on: Puccinia recondita f. sp. tritici; assay: Test K: wheat leaf rust, preventive spray on wheat seedlings; settings: 40 ppm (*)
Botrytis cinerea = assay: Test E: tomato botrytis, preventive spray on tomato seedlings; settings: 40 ppm (*)
Septoria nodorum = assay: Test H: wheat glum blotch, preventive spray on wheat seedlings; settings: 40 ppm (*)
Method: (the causal agent of wheat glum blotch) and incubated in a saturated atmosphere at 20° C. for 48 h, and then moved to a growth chamber at 22° C. for 5 days, after which disease ratings were made.

[2] = tested on: Erysiphe graminis f. sp. tritici; assay: Test L: wheat powdery mildew, preventive spray on wheat seedlings; settings: 40 ppm (*)
Pythium aphanidermatum = assay: Test A: bluegrass pythium blight, preventive spray on bluegrass seedlings; settings: 40 ppm (*)
Rhizoctonia oryzae = assay: Test G: turf brown patch, preventive spray on creeping bent grass seedlings; settings: 40 ppm (*)
Method: (the causal agent of turf brown patch) and incubated in a saturated atmosphere at 27° C. for 24 h, and then moved to a growth chamber at 27° C. for 5 days, after which disease ratings were made.

[3] = tested on: Colletotrichum orbiculare; assay: Test B: cucumber Colletotrichum anthracnose, preventive spray on cucumber seedlings

SMILES | Test D disease control rating (Plasmopara viticola) | Test F disease control rating (Phytophthora infestans) | Test J disease control rating (Septoria tritici) | Test I disease control rating (fusarium graminearium) | Test K disease control rating [1] | Test E disease control rating (Botrytis cinerea) | Test H disease control rating (Septoria nodorum) | Test L disease control rating [2] | Test A disease control rating (Pythium aphanidermatum) | Test G disease control rating (Rhizoctonia oryzae) | Test B disease control rating ([3]; 200 ppm) [%] | Test B disease control rating ([3]; 40 ppm (*))
CC(C)Cn1c(-c2c(F)c(F)c(F)c(F)c2F)c(Cl)nc(-n2cccn2)c1=O [compound 171] | 0* % | 0* % | 52* % | 0* % | 96* % | 100* % | 82* % | 99* % | 0* % | 95* % | 0 | –
CC(C)Cn1c(-c2c(F)cccc2F)c(Cl)nc(-c2cccnc2)c1=O [compound 178] | 0* % | 0* % | 5* % | 0* % | 0* % | 0* % | 0* % | 0* % | 0* % | 0* % | – | 0* %
CCCC(C)n1c(-c2c(F)cccc2F)c(Cl)nc(-n2cccn2)c1=O (stereo not drawn) [compound 180] | 0* % | 0* % | 98* % | 0* % | 100* % | 99* % | 99* % | 95* % | 0* % | 94* % | – | 66* %
CCC(CC)n1c(-c2c(F)cccc2F)c(Cl)nc(-n2cccn2)c1=O [compound 181] | 0* % | 0* % | 100* % | 0* % | 100* % | 99* % | 99* % | 98* % | 0* % | 100* % | – | 51* %
CCC(CC)Cn1c(-c2c(F)cccc2F)c(Cl)nc(-n2cccn2)c1=O [compound 183] | 0* % | 0* % | 100* % | 0* % | 99* % | 100* % | 89* % | 92* % | 0* % | 81* % | – | 0* %
CCn1c(-c2c(F)cccc2F)c(Cl)nc(-n2cccn2)c1=O [compound 184] | 67* % | 0* % | 96* % | 0* % | 98* % | 100* % | 100* % | 98* % | 0* % | 88* % | – | 0* %
C#CCn1c(-c2c(F)cccc2F)c(Cl)nc(-n2cccn2)c1=O [compound 186] | 0* % | 0* % | 92* % | 0* % | 100* % | 99* % | 100* % | 90* % | 0* % | 67* % | – | 16* %
O=c1c(-n2cccn2)nc(Cl)c(-c2c(F)cccc2F)n1Cc1ccco1 [compound 187] | 0* % | 0* % | 77* % | 0* % | 91* % | 96* % | 0* % | 0* % | 0* % | 0* % | – | 0* %
O=c1c(-n2cncn2)nc(Cl)c(-c2c(F)cccc2F)n1Cc1ccco1 [compound 188] | 0* % | 0* % | 23* % | 0* % | 0* % | 56* % | 0* % | 0* % | 0* % | 0* % | – | 0* %
